According to paper PMC11378298 (ACS Chemical Neuroscience, 2024):
Counter-ions that a name gives are not always drawn.

Assays:
GSK-3β = GSK-3β (Homo sapiens, UniProt P49841); assay: biochemical; settings: for inhibition at 10 µM: read-out: Percent of enzyme inhibition at 10 μM of inhibitor concentration
Protocol: We evaluated the pharmacological properties of the compounds in vitro against GSK-3β using the GSK-3β Kinase Enzyme System followed by ADP-Glo bioluminescent assay.[50] The principle of the assay is to determine the amount of ADP formed from ATP in the kinase reaction. […] Additionally, compounds 11 and 36 in complex with GSK-3β were analyzed by the proteins’ melting temperature determination using Thermal Shift Assay (see Figure S1 in the SI).
The inhibitory activities of the tested compounds against the GSK-3β human recombinant kinase were measured using Promega’s GSK-3β Kinase Enzyme System (Promega; Madison, WI, USA), according to the provided manufacturer’s instruction, using the low-volume white polystyrene 384-well plates. The ADP-Glo Assay (Promega; Madison, WI, USA) was used for bioluminescent detection of the kinase activity. Tested compounds were prepared as 1 mM stock solutions in DMSO and diluted with the Kinase Assay Buffer before use (40 mM Tris, pH 7.5, enriched with 50 μM dithiothreitol; DTT) to obtain the desired compounds’ concentrations. The kinase enzyme, GSK-3β-substrate (derived from human muscle glycogen synthase 1), and ATP were also diluted in the assay buffer before use. At first, GSK-3β (10 ng per well) was incubated with the tested sample (10 μM in well) for 5 min. In the case of blank wells, the DMSO solution (1% in well) was used instead of the target samples’ solutions. After the incubation period, ATP (25 μM in well) and GSK-3β-substrate (0.2 μg/μL in well) were added to start the enzymatic reaction. The reaction mixture was kept at room temperature for 1 h, followed by the addition of the ADP-Glo reagent, to terminate the kinase reaction and deplete any remaining ATP. After the following 40 min—a second reagent (Kinase Detection Reagent) was applied to convert the obtained ADP to ATP and to generate light from the newly synthesized ATP using a luciferase/luciferin reaction. The mixture was kept for another 30 min at room temperature, then the luminescence was measured. Based on equation 100 – (S/B) × 100 (where S and B were the respective enzyme activities with and without the tested sample, respectively) the percent of inhibition of GSK-3β for each compound was calculated. […] Calculations were made using nonlinear regression (GraphPad Prism 9; GraphPad Software, San Diego, CA, USA) by plotting the residual enzyme activities against the applied inhibitor concentration. […] Each data point was collected in triplicate.

[1] = Cytotoxicity in HT-22 cells (PrestoBlue); settings: mouse, HT-22 hippocampal neuronal cells
Protocol: (§1) The compounds were tested at 5 concentrations (0.1, 1, 10, 50, and 100 μM).
(§2) Mouse Hippocampal Neuronal Cell Line (HT-22) was a generous gift from Dr Bartosz Pomierny of the Department of Biochemical Toxicology, Jagiellonian University Medical College, Krakow, Poland. Cells were cultured in Dulbecco’s modified Eagle’s Medium—high glucose (DMEM, Glutamax Thermo Fisher) supplemented with 10% heat-inactivated fetal bovine serum (Thermo Fisher), 100 IU/mL penicillin (Merck) and 100 μg/mL streptomycin (Merck). Cells were cultured in flasks (area 175 cm^2, Nunc), and incubated at 37 °C, 5% CO2. For the measurement of cell viability and neuroprotective effect against okadaic acid cells were placed in a 96-well culture plate (2 × 10^4 cells per well, Falcon). Before the tests, cells were grown for 24 h in the incubator (37 °C, 5% CO2).
(§3) Cell viability was evaluated using the PrestoBlue reagent (ThermoFisher), according to the manufacturer’s procedures.[87] Following 24 h of incubation with the tested molecule, PrestoBlue reagent was added to a microplate well in an amount equal to one-tenth of the remaining medium volume. The resulting mixture was incubated for 15 min at 37 °C, and the fluorescence intensity (EX 530 nm; EM 580 nm) was measured in the plate reader POLARstar Omega, (BMG Labtech).

HT-22 cells = assay: Cytotoxicity in HT-22 cells (PrestoBlue); settings: whole range of concentrations 0.1–100 μM
Protocol: as §1, §2, §3

[2] = Cytotoxicity in BV-2 cells (PrestoBlue); settings: mouse, BV-2 microglial cells
Protocol: as §1
Mouse microglial cells (BV-2) were a generous gift from Professor Bozena Kaminska-Kaczmarek of the Laboratory of Molecular Neurobiology, Neurobiology Center, Nencki Institute of Experimental Biology, Polish Academy of Sciences, Warsaw, Poland. Cells were cultured in Dulbecco’s modified Eagle’s Medium-high glucose (DMEM, Glutamax Thermo Fisher) supplemented with 10% heat-inactivated fetal bovine serum (Thermo Fisher), 100 IU/mL penicillin (Merck) and 100 μg/mL streptomycin (Merck). Cells were cultured in flasks (area 175 cm^2, Nunc), and incubated at 37 °C, 5% CO2. To evaluate the level of NO, IL-6, and TNF-α and the effectiveness of the compounds tested, BV-2 microglia cells were cultured in a 96-well culture plate (5 × 10^4 cells per well, Falcon). For the measurement of cell viability and cell membrane damage, cells were placed in a 96-well culture plate (2 × 10^4 cells per well, Falcon). Before the tests, cells were grown for 24 h in the incubator (37 °C, 5% CO2).
as §3

BV-2 cell line = assay: NO release in LPS-treated BV-2 cells (DAN fluorometric assay); assay type: cell-based, mouse; settings: compound 0.1, 1, 10 μM; LPS 100 ng/mL
Protocol: Cell viability was determined by Presto Blue assay after 24 h. (B) Effect of compounds 11, 34, and 36 (0.1, 1, 10 μM) on NO-release (%) in LPS-treated (100 ng/mL) BV-2 cell line. NO-release was measured using a fluorometric assay with 2,3-diaminonaphthalene (DAN). (C, D) Effects of compounds 11 and 36 (0.1, 1, 10 μM) on IL-6 and TNF-α release in LPS-treated (100 ng/mL) BV-2 cell line. The IL-6 and TNF-α levels were measured using LANCE Ultra TR-FRET Detection Kit (PerkinElmer). Statistical analysis was performed using GraphPad Prism 9.0.0. All values are expressed as mean with SD. Differences among groups were evaluated by one-way ANOVA followed by posthoc analysis (Dunnett’s multiple comparison tests) vs. control group (LPS on BV-2 cells and okadaic acid on HT-22 cells) and were considered statistically significant if p < 0.05 (*p < 0.05, **p < 0.01, ***p < 0.001, and ****p < 0.0001).
An important role in the pathogenesis of AD has been attributed to neuroinflammation resulting from the activation of astrocytes and microglial cells.[55] These processes lead to increased production of proinflammatory cytokines such as TNF-α or IL-6 that activate processes, e.g., tau hyperphosphorylation, causing injury and cell death.[56] A standard model of neuroinflammation is based on lipopolysaccharide-stimulated BV-2 microglial cells. In this study, we used this model to evaluate the anti-inflammatory properties of compounds 11, 34, and 36.[57] Our evaluation focused on monitoring the levels of key inflammatory markers, including nitric oxide (NO, Figure 6B) and cytokines, TNF-α and IL-6 (Figure 6C,D).
The cells were pretreated with tested compounds for 1 h. […]
The NO level in the culture supernatants was measured using 2,3-diaminonaphthalene (DAN) reagent according to the method of Nussler et al.[88] After 15 min of incubation at room temperature, the fluorescence intensity (EX 360; EM 440 nm) was measured using a microplate reader POLARstar Omega, (BMG Labtech). The values of nitric oxide were calculated as a percentage of control (maximal response of LPS).

GSK-3β, sequence (P49841 whole entry): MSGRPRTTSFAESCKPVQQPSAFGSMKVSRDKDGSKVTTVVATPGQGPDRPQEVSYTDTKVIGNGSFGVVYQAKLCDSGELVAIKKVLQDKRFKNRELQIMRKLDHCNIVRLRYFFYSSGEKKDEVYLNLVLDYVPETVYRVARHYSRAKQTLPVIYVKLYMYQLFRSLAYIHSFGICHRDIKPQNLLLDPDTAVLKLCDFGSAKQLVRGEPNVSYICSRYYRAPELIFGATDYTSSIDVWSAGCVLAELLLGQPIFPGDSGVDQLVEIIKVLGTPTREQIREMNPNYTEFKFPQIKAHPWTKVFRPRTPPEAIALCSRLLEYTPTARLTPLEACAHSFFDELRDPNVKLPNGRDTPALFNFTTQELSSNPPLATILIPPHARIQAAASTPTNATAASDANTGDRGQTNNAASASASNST

| IC50 (GSK-3β) [nM] | SMILES | further results |
| --- | --- | --- |
| 1370 ± 44 | NCCS(=O)(=O)N1CC=C(c2ccnc(NC(=O)C3CC3)c2)C1 [Compound 19, N-(4-(1-((2-Aminoethyl)sulfonyl)-2,5-dihydro-1H-pyrrol-3-yl)pyridin-2-yl)cyclopropanecarboxamide Hydrochloride] | – |
| 9990 ± 406 | NCCCS(=O)(=O)N1CC=C(c2ccnc(NC(=O)C3CC3)c2)C1 [Compound 20, N-(4-(1-((3-Aminopropyl)sulfonyl)-2,5-dihydro-1H-pyrrol-3-yl)pyridin-2-yl)cyclopropanecarboxamide Hydrochloride] | – |
| 1130 ± 37 | N#Cc1ccc(-c2ccnc(NC(=O)C3CC3)c2)cc1 [Compound 22, N-(4-(4-Cyanophenyl)pyridin-2-yl)cyclopropanecarboxamide] | – |
| 952 ± 21 | N#Cc1cccc(-c2ccnc(NC(=O)C3CC3)c2)c1 [Compound 23, N-(4-(3-Cyanophenyl)pyridin-2-yl)cyclopropanecarboxamide] | – |
| 212 ± 7 | N#Cc1ccc(-c2ccnc(NC(=O)C3CC3)c2)cn1 [Compound 24, N-(6-Cyano-[3,4′-bipyridin]-2′-yl)cyclopropanecarboxamide] | – |
| 146 ± 5 | N#Cc1ccc(-c2ccnc(NC(=O)C3CC3)c2)s1 [Compound 26, N-(4-(5-Cyanothiophen-2-yl)pyridin-2-yl)cyclopropanecarboxamide] | – |
| 257 ± 5 | O=C(Nc1cc(-c2ccc(-c3ncon3)cc2)ccn1)C1CC1 [Compound 32, N-(4-(4-(1,2,4-Oxadiazol-3-yl)phenyl)pyridin-2-yl)cyclopropanecarboxamide] | – |
| 898 ± 32 | O=C(Nc1cc(-c2cccc(-c3ncon3)c2)ccn1)C1CC1 [Compound 33, N-(4-(3-(1,2,4-Oxadiazol-3-yl)phenyl)pyridin-2-yl)cyclopropanecarboxamide] | – |
| 809 ± 28 | O=C(Nc1cc(-c2ccnc(-c3ncon3)c2)ccn1)C1CC1 [Compound 35, N-(2′-(1,2,4-Oxadiazol-3-yl)-[4,4′-bipyridin]-2-yl)cyclopropanecarboxamide] | – |
| 5220 ± 301 | O=C(Nc1cc(-c2ccc(-c3ccccc3)s2)ccn1)C1CC1 [Compound 37, N-(4-(5-Phenylthiophen-2-yl)pyridin-2-yl)cyclopropanecarboxamide] | – |

More lines, now with the values behind:

| SMILES | IC50 (GSK-3β) [nM] | further results |
| --- | --- | --- |
| O=C(Nc1cc(C2=CCN(C[C@H]3CCCN3)C2)ccn1)C1CC1 [(R)-15, (R)-N-(4-(1-(Pyrrolidin-2-ylmethyl)-2,5-dihydro-1H-pyrrol-3-yl)pyridin-2-yl)cyclopropanecarboxamide hydrochloride] | – | inhibition at 10 µM (GSK-3β): 17.8 ± 1.7% |
| O=C(Nc1cc(C2=CCN(C[C@@H]3CCCN3)C2)ccn1)C1CC1 [(S)-15, (S)-N-(4-(1-(Pyrrolidin-2-ylmethyl)-2,5-dihydro-1H-pyrrol-3-yl)pyridin-2-yl)cyclopropanecarboxamide Hydrochloride] | 11300 ± 1120 | – |
| CC(=O)N1CC=C(c2ccnc(NC(=O)C3CC3)c2)C1 [Compound 10, N-(4-(1-Acetyl-2,5-dihydro-1H-pyrrol-3-yl)pyridin-2-yl)cyclopropanecarboxamide] | 599 ± 11 | – |
| NCCC(=O)N1CC=C(c2ccnc(NC(=O)C3CC3)c2)C1 [Compound 12, N-(4-(1-(3-Aminopropanoyl)-2,5-dihydro-1H-pyrrol-3-yl)pyridin-2-yl)cyclopropanecarboxamide Hydrochloride] | 1360 ± 110 | – |
| NCCCC(=O)N1CC=C(c2ccnc(NC(=O)C3CC3)c2)C1 [Compound 13, N-(4-(1-(4-Aminobutanoyl)-2,5-dihydro-1H-pyrrol-3-yl)pyridin-2-yl)cyclopropanecarboxamide Hydrochloride] | 5490 ± 363 | – |
| O=C(Nc1cc(C2=CCN(C(=O)[C@@H]3CCCN3)C2)ccn1)C1CC1 [Compound 14, N-(4-(1-Prolyl-2,5-dihydro-1H-pyrrol-3-yl)pyridin-2-yl)cyclopropanecarboxamide] | 7720 ± 543 | – |
| CS(=O)(=O)N1CC=C(c2ccnc(NC(=O)C3CC3)c2)C1 [Compound 16, N-(4-(1-(Methylsulfonyl)-2,5-dihydro-1H-pyrrol-3-yl)pyridin-2-yl)cyclopropanecarboxamide] | 6200 ± 163 | – |
| CCCS(=O)(=O)N1CC=C(c2ccnc(NC(=O)C3CC3)c2)C1 [Compound 17, N-(4-(1-(Propylsulfonyl)-2,5-dihydro-1H-pyrrol-3-yl)pyridin-2-yl)cyclopropanecarboxamide] | 9270 ± 467 | – |
| O=C(Nc1cc(C2=CCN(S(=O)(=O)C3CCCC3)C2)ccn1)C1CC1 [Compound 18, N-(4-(1-(Cyclopentylsulfonyl)-2,5-dihydro-1H-pyrrol-3-yl)pyridin-2-yl)cyclopropanecarboxamide] | 3250 ± 83 | – |
| N#Cc1cc(-c2ccnc(NC(=O)C3CC3)c2)ccn1 [Compound 25, N-(2′-Cyano-[4,4′-bipyridin]-2-yl)cyclopropanecarboxamide] | – | inhibition at 10 µM (GSK-3β): 34.4 ± 2.8% |
| O=C(Nc1cc(-c2ccc(-c3ncon3)nc2)ccn1)C1CC1 [Compound 34, N-(6-(1,2,4-Oxadiazol-3-yl)-[3,4′-bipyridin]-2′-yl)cyclopropanecarboxamide] | 185 ± 3 | IC50 at 24 h [1]: > 100000 nM; cell viability in HT-22 cells (HT-22 cells): No significant decrease in cell viability; IC50 at 24 h [2]: 39200 ± 5200 nM; impact on NO release (BV-2 cell line): did not show any impact |
